The record followed here is patent publication US20070270421A1, “Novel pyridine Derivative and Pyrimidine Derivative (1)” (priority 2004, published 2007).

The subject of experiment [1] is Human gastric cancer cells (MKN-45). The experiment in a line: Inhibitory activity against the proliferation of human gastric cancer cells (MKN-45). It is filed as cell-based. The following applies: 72 h, MKN-45, 1% FBS RPMI1640, 3 days, Cell Counting Kit-8, read-out: IC50 (concentration necessary to inhibit the cell proliferation by 50%). The method, then: Human gastric cancer cells (MKN-45) were suspended in a 1% FBS-containing RPMI1640 medium (purchased from Sigma). The cell suspension (1×10^4 cells/ml) was added in a 96-well plate for cell culture (purchased from NUNC, Production No. 167008) at 0.1 ml/well, and then cultured in a 5% CO2 incubator (37° C.) overnight. After the culture, each well was supplied with 0.1 ml of a test substance diluted with a 1% FBS-containing RPMI1640 medium, followed by culturing in a 5% CO2 incubator (37° C.) for 3 days. After the culture, each well was supplied with 10 μl of Cell Counting Kit-8 (purchased from DOJINDO, Production No. 343-07623), followed by incubation in a 5% CO2 incubator (37° C.) for about 1.5 hrs. After the incubation, using the Plate Reader MTP-500 (Corona Electric), the absorbance of each well was determined at a measurement wavelength of 450 nm and a reference wavelength of 660 nm. The ratio (%) of absorbance of each well supplied with a test substance to absorbance of the well supplied with no test substance was calculated, and the ratio was used to calculate the concentration (IC50) of the test substance necessary to inhibit the cell proliferation by 50%.
(Formazan colour is commonly taken as a measure of viable cells.)

The target in experiment [2] is T1, HGFR (His6-HGFR cytoplasmic domain) (Homo sapiens, UniProt P08581).
T1 construct: made in house; host or cells: Spodoptera frugiperda Sf9 insect cells (baculovirus, pFastBac-HT)
T1 sequence (P08581 956-1390 limits assumed): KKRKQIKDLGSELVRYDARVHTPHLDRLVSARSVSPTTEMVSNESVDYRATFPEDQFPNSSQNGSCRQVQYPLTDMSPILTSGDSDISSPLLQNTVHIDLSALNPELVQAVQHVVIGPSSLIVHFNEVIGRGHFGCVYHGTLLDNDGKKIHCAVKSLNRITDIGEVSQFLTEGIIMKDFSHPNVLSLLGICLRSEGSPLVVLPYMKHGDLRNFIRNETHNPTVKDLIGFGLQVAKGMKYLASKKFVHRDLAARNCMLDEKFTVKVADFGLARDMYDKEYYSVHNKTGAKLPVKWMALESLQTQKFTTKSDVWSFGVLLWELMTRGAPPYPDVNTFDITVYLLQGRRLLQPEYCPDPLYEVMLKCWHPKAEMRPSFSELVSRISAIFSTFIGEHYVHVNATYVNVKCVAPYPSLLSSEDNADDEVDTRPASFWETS
Nature of the experiment: Inhibitory activity against HGFR tyrosine kinase activity (HTRF). It is filed as biochemical. The following applies: biotin-poly(GT), ATP, 30° C. 10 min, read-out: IC50 (concentration necessary to inhibit HGFR kinase activity by 50%). The method, boiled down: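 Baculovirus/Sf9-expressed N-terminal His6-tagged HGFR cytoplasmic domain (from Lys974), Ni-NTA purified, phosphorylated biotin-poly(GT) in Hepes pH 7.4 with MgCl2/MnCl2. ATP added as 4 μM solution; 10 min at 30° C., stopped with EDTA. Phosphotyrosine product detected by HTRF.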
(Time-resolved FRET reads energy transfer from a long-lived donor to a nearby acceptor.)

With `CN1CCC(N(C)C(=O)Nc2cc(Oc3ccc(NC(=O)NC(=O)Cc4ccccc4)cc3F)ccn2)CC1` [Example 52, 3-{4-[2-Fluoro-4-(3-phenylacetylureido)phenoxy]pyridin-2-yl]-1-methyl-1-(1-methylpiperidin-4-yl)urea], the IC50 was 63 nM in experiment [1] and 73 nM in experiment [2].

In the case of `O=C(Cc1ccccc1)NC(=O)Nc1ccc(Oc2ccnc(NC(=O)N3CCOCC3)c2)c(F)c1` [Example 48, Morpholine-4-carboxylic acid {4-[2-fluoro-4-(3-phenylacetylureido)phenoxy]pyridin-2-yl}amide], the IC50 in experiment [1] was found to be 57 nM; in experiment [2], 56 nM.

For `O=C(Cc1ccc(F)cc1)NC(=S)Nc1ccc(Oc2ccnc(NC(=O)N3CCCC3)c2)cc1` [Example 9, Pyrrolidine-1-carboxylic acid [4-(4-{3-[2-(4-fluorophenyl)acetyl]thioureido}phenoxy)pyridin-2-yl]amide], the IC50 was determined as 33 nM in experiment [1] and 53 nM in experiment [2].

Regarding `CN1CCN(C(=O)Nc2cc(Oc3ccc(NC(=O)NC(=O)Cc4ccccc4)cc3F)ccn2)CC1` [Example 50, 4-Methylpiperazine-1-carboxylic acid {4-[2-fluoro-4-(3-phenylacetylureido)phenoxy]pyridin-2-yl}amide], the IC50 in experiment [1] came to 160 nM; in experiment [2], 190 nM.

`O=C(Cc1ccc(F)cc1)NC(=S)Nc1ccc(Oc2ccnc(NC(=O)N3CCCC3)c2)c(F)c1` [Example 13, 4-(2-Fluoro-4-{3-[2-(4-fluorophenyl)acetyl]thioureido}phenoxy)-2-[(pyrrolidin-1-yl)carbonylamino]pyridine]: the IC50 was found to be 23 nM in experiment [1] and 110 nM in experiment [2].

For the molecule `Cc1cc(Oc2ccnc(NC(=O)N3CCC(N4CCCC4)CC3)c2)ccc1NC(=O)CC(=O)Nc1ccc(F)cc1` [Example 85, N-(4-Fluorophenyl)-N′-[2-methyl-4-(2-{[(4-pyrrolidin-1-yl)piperidine-1-carbonyl]amino}pyridin-4-yloxy)phenyl]malonamide], the results for the IC50 in experiment [1] and in experiment [2] were 630 nM and 96 nM, respectively.

Take `O=C(Cc1ccccc1)NC(=O)Nc1ccc(Oc2ccnc(NC(=O)N3CCCC3)c2)c(F)c1` [Example 43, 4-{2-Fluoro-4-[3-(2-phenylacetyl)ureido]phenoxy}-2-[(pyrrolidin-1-yl)carbonylamino]pyridine]: the IC50 was 35 nM in experiment [1] and 83 nM in experiment [2].

In the case of `CN(C)C(=O)Nc1cc(Oc2ccc(NC(=O)NC(=O)Cc3ccccc3)cc2F)ccn1` [Example 44, 2-[(Dimethylamino)carbonylamino]-4-{2-fluoro-4-[3-(2-phenylacetyl)ureido]phenoxy}pyridine], the IC50 in experiment [1] amounted to 64 nM; in experiment [2], 45 nM.

Consider `O=C(CC(=O)Nc1ccc(Oc2ccnc(NC(=O)C3CC3)c2)cc1F)Nc1ccc(F)cc1` [Example 77, N-(4-Fluorophenyl)-N′-{4-[2-(cyclopropanecarbonylamino)pyridin-4-yloxy]-2-fluorophenyl}malonamide], for which the IC50 in experiment [1] was 110 nM; in experiment [2] it was 13 nM.

In the case of `CN(C)C(=O)Nc1cc(Oc2ccc(NC(=S)NC(=O)CC3CC4CCC3C4)cc2F)ccn1` (stereo not drawn) [Example 17, 2-[(Dimethylamino)carbonylamino]-4-{2-fluoro-4-[3-(2-norbornaneacetylthio)ureido]phenoxy}pyridine], the IC50 in experiment [1] amounted to 570 nM; in experiment [2] it was 64 nM.

On to `O=C(CC(=O)Nc1ccc(Oc2ccnc(NC(=O)N3CCCC3)c2)c(F)c1)Nc1ccc(F)cc1` [Example 56, N-(4-Fluorophenyl)-N′-(3-fluoro-4-{2-[(pyrrolidine-1-carbonyl)amino]pyridin-4-yloxy}phenyl)malonamide], for which the IC50 in experiment [1] was 140 nM; in experiment [2], 56 nM.

For `CN1CCC(N(C)C(=O)Nc2cc(Oc3ccc(NC(=O)CC(=O)Nc4ccc(F)cc4)cc3F)ccn2)CC1` [Example 89, N-(3-Fluoro-4-{2-[3-methyl-3-(1-methylpiperidin-4-yl)ureido]pyridin-4-yloxy}phenyl)-N′-(4-fluorophenyl)malonamide], the values for the IC50 in experiment [1] and in experiment [2] were 86 nM and 38 nM, respectively.

In the case of `O=C(Cc1ccccc1)NC(=O)Nc1ccc(Oc2ccnc(NC(=O)N3CCC(N4CCCC4)CC3)c2)c(F)c1` [Example 45, 4-{2-Fluoro-4-[3-(2-phenylacetyl)ureido]phenoxy}-2-{[4-(pyrrolidin-1-yl)piperidin-1-yl]carbonylamino}pyridine], the IC50 worked out at 140 nM in experiment [1] and 91 nM in experiment [2].

Consider `O=C(CC(=O)Nc1ccc(Oc2ccnc(NC(=O)N3CCC(N4CCCC4)CC3)c2)cc1F)Nc1ccc(F)cc1` [Example 82, N-(4-Fluorophenyl)-N′-[2-fluoro-4-(2-{[4-(pyrrolidin-1-yl)piperidine-1-carbonyl]amino}pyridin-4-yloxy)phenyl]malonamide], for which the figures for the IC50 in experiment [1] and in experiment [2] were 120 nM and 66 nM, respectively.

`O=C(Cc1ccc(F)cc1)NC(=S)Nc1ccc(Oc2cc(NC(=O)N3CCCC3)ncn2)c(F)c1` [Example 3, Pyrrolidine-1-carboxylic acid [6-(2-fluoro-4-{3-[2-(4-fluorophenyl)acetyl]thioureido}phenoxy)pyrimidin-4-yl]amide]: the IC50 in experiment [1] was found to be 40 nM; in experiment [2], 71 nM.

Take `Cc1cc(NC(=S)NC(=O)Cc2ccc(F)cc2)ccc1Oc1ccnc(NC(=O)N2CCOCC2)c1` [Example 24, Morpholine-4-carboxylic acid (4-{2-methyl-4-[3-(4-fluorophenyl)acetylthioureido]phenoxy}pyridin-2-yl)amide]: the IC50 in experiment [1] worked out at 180 nM; in experiment [2] it was 54 nM.

Take `O=C(Cc1ccccc1)NC(=S)Nc1ccc(Oc2ccnc(NC(=O)N3CCC(O)CC3)c2)c(F)c1` [Example 15, 4-{2-Fluoro-4-[3-(2-phenylacetyl)thioureido]phenoxy}-2-[(4-hydroxypiperidin-1-yl)carbonylamino]pyridine]: the figures for the IC50 in experiment [1] and in experiment [2] were 48 nM and less than 30 nM, respectively.

Take `CN1CCCN(C(=O)Nc2cc(Oc3ccc(NC(=O)CC(=O)Nc4ccc(F)cc4)c(F)c3)ccn2)CC1` [Example 92, N-(2-Fluoro-4-{2-[(4-methyl-[1,4]diazepane-1-carbonyl)amino]pyridin-4-yloxy}phenyl)-N′-(4-fluorophenyl)malonamide]: the IC50 in experiment [1] was 570 nM; in experiment [2], 78 nM.

For `CCN(CC)CCCN(C)C(=O)Nc1cc(Oc2ccc(NC(=S)NC(=O)Cc3ccc(F)cc3)cc2F)ccn1` [Example 22, 1-(3-Diethylaminopropyl)-3-[4-(2-fluoro-4-{3-[2-(4-fluorophenyl)acetyl]thioureido}phenoxy)pyridin-2-yl]-1-methylurea], the IC50 in experiment [1] came out at 33 nM; in experiment [2], 110 nM.

Take `O=C(Cc1ccccc1)NC(=S)Nc1ccc(Oc2ccnc(NC(=O)N3CCOCC3)c2)c(Cl)c1` [Example 11, 4-{2-Chloro-4-[3-(2-phenylacetyl)thioureido]phenoxy}-2-[(morpholin-4-yl)carbonylamino]pyridine]: the IC50 amounted to 180 nM in experiment [1] and 88 nM in experiment [2].

Take `CN1CCC(N(C)C(=O)Nc2cc(Oc3ccc(NC(=S)NC(=O)Cc4ccccc4)cc3F)ccn2)CC1` [Example 28, 3-{4-[2-Fluoro-4-(3-phenylacetylthioureido)phenoxy]pyridin-2-yl}-1-methyl-1-(1-methylpiperidin-4-yl)urea]: the IC50 is 5.8 nM in experiment [1] and 75 nM in experiment [2].
